TGI data for 14 molecules are collected here from PubChem BioAssay (NCI).

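Exposure lasted 48 hours, with cells grown in 96-well plates and compounds tested at five concentrations. Definition used: TGI = concentration required for complete inhibition of growth.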 A value given as a limit tells only on which side of the number the result lay.

Test in all cases: inhibition of tumour cell growth, NCI panel, 48 h
The subject of assay [1] is HOP-92 NSCLC.
The subject of assay [2] is SK-MEL-28 melanoma.
For assay [3], the system named is SR leukemia.
Assay [4] relates to A549 NSCLC.
Assay [5] concerns BT-549 breast.
Assay [6] concerns NCI-H226 lung.
Assay [7] has as its system HCT-116 colon.
Assay [8] relates to RPMI-8226 leukemia.
The subject of assay [9] is IGROV1 ovarian.
Assay [10] concerns MDA-MB-231 breast.
In assay [11] the test system is HOP-62 NSCLC.
The test system of assay [12] is NCI-H460 lung.

As to `COc1cc(NC(C)=O)ccc1C(=O)NN1C(=O)C(Cl)C1c1ccco1` (centres undefined), the TGI in assay [1], in assay [2], in assay [3], in assay [4], in assay [5] and in assay [6] was greater than 100 µM in each case. The TGI in [7], in assay [8] and in assay [9] was greater than 100 µM in each case.

For the molecule `O=C(Cc1csc(N=Nc2c(O)[nH]c3ccccc23)n1)Nc1ccccc1`, the TGI in [10] is greater than 100 µM; in [1], greater than 100 µM; in assay [11] it was 52.2 µM; in assay [2] it was 46.5 µM; in [4], greater than 100 µM; in assay [5] it was greater than 100 µM. Besides, the TGI is greater than 100 µM in assay [12], 50.8 µM in assay [7] and 30.5 µM in assay [9].

Take `Cc1ccc(S(=O)(=O)N2C[C@](O)(c3ccccc3)[C@H]2C)cc1`: the TGI in assay [10], in assay [1], in assay [11], in assay [2], in [4] and in assay [6] was greater than 100 µM each time. In addition, the TGI in [12], in [7] and in assay [9] was greater than 100 µM in each case.

For `C=C(C)CC1(O)C(=O)C(OCC)=C1OCC` (centres undefined), the TGI in [10], in assay [1], in assay [11], in assay [2], in assay [4] and in assay [5] was greater than 100 µM each time. For the same molecule, the TGI in assay [6], in [12], in assay [7] and in assay [9] was greater than 100 µM in each case.

For `CCOc1ccc(NC(=O)/C(=N\NC(C)(C)C)C2C(=O)Nc3ccccc3S2=O)cc1` (centres undefined), the TGI in [1], in assay [11], in [2], in assay [3], in [4] and in [5] was greater than 100 µM throughout. Also, the TGI in assay [6], in assay [12], in assay [7], in assay [8] and in assay [9] was greater than 100 µM in each case.

In the case of `C/C=C1/CN2CCC3(O)c4ccccc4N4C=C(C(=O)OC)C1CC2C43O` (centres undefined), the TGI in assay [1], in [11], in assay [2], in assay [3], in [4] and in assay [5] was greater than 100 µM throughout. The TGI in [12], in [7], in assay [8] and in assay [9] was greater than 100 µM in each case.

As for `C=C1C(=O)OC2/C=C(/C)C3CC(O)C(C)(CC(OC(=O)/C(C)=C/C)C12)O3` (centres undefined), the TGI is 8.68 µM in assay [1]; 46.7 µM in [11]; 8.35 µM in assay [2]; greater than 24 µM in assay [3]; 23.6 µM in assay [4]; 35.3 µM in assay [6]. In addition, the TGI is 18.3 µM in [12], 3.08 µM in assay [7], greater than 22.4 µM in assay [8] and 18.7 µM in [9].

Regarding `CCOC(=O)c1c(C)cc(=O)n2c1[nH]c1ccccc12`, the TGI in assay [10], in assay [1], in assay [2], in assay [4], in assay [5] and in assay [6] was greater than 100 µM throughout. Further, the TGI in assay [12], in assay [7] and in assay [9] was greater than 100 µM each time.

For `O=C(O)CS`, the TGI in [1], in assay [2], in [3], in [4], in [6] and in assay [12] was greater than 100 µM throughout. The TGI in assay [7], in assay [8] and in [9] was greater than 100 µM in each case.

For `[N-]=[N+]=Nc1c(C=O)c(=O)n(-c2ccccc2)c2ccccc12`, the TGI is greater than 100 µM in [10]; 31.1 µM in [1]; greater than 100 µM in assay [11]; 35.3 µM in assay [2]; greater than 100 µM in assay [4]; greater than 100 µM in assay [5]. For the same molecule, the TGI is greater than 100 µM in assay [12] and 44.8 µM in assay [9].

With `CC(C)CCC[C@@H](C)C1CCC2[C@@H]3CC=C4C[C@@H](C(=O)NCC[N+](C)(C)CCCS(=O)(=O)[O-])CC[C@]4(C)C3CC[C@@]21C` (some centres undefined), the TGI in assay [11] came out at 42.9 µM; in assay [2], 34.5 µM; in [4], 31.7 µM; in [6] it was 37.9 µM; in [12] it was 30.6 µM; in assay [7], 30.9 µM. For the same molecule, the TGI in assay [8] came out at 41.5 µM; in [9], 32.6 µM.

Turning to `Cc1nc(C(N)=S)sc1C(/C=C/c1ccc(Cl)c(Cl)c1)=N/NC(C)(C)C`, the TGI in assay [10], in [1], in assay [2], in [4], in assay [5] and in assay [6] was greater than 100 µM each time. Further, the TGI in [12], in [7] and in [9] was greater than 100 µM throughout.

Regarding `c1ccc(C2=NOC3(c4ccccc4)SC4CCCCC4CN23)cc1` (centres undefined), the TGI in assay [1] was 59.4 µM; in assay [11] it was greater than 100 µM; in assay [2], greater than 100 µM; in assay [3], greater than 100 µM; in assay [4] it was 58.5 µM; in assay [6], greater than 100 µM. For the same molecule, the TGI was greater than 100 µM in assay [12], 50.4 µM in [7], 95.4 µM in assay [8] and 32.8 µM in assay [9].

Turning to `CC(C)(C)NC(=O)NC12CC3CC(CC(F)(C3)C1)C2`, the TGI in [1], in assay [11], in assay [2], in assay [4], in assay [12] and in assay [7] was greater than 100 µM throughout. Besides, the TGI in assay [8] and in assay [9] was greater than 100 µM in each case.
